Columns and labels:
Assay in all cases: Fractional growth, 72 h seliciclib
Assay type in all cases: cell-based, human
[1] = system: 22RV1; conditions: 22RV1 (Prostate), 15 μM seliciclib
Description: (§1) A total of 270 human cancer cell lines from diverse cancer histopathologic types were investigated.

[2] = system: HGC-27; conditions: HGC-27 (Stomach), 15 μM seliciclib
Description: as §1

[3] = system: HCT-15; conditions: HCT-15 (Intestine), 15 μM seliciclib
Description: as §1

[4] = system: H2052; conditions: H2052 (Lung), 15 μM seliciclib
Description: as §1

[5] = system: AZ-521; conditions: AZ-521 (Stomach), 15 μM seliciclib
Description: as §1

[6] = system: NCI-H2030; conditions: NCI-H2030 (Lung: NSCLC), 15 μM seliciclib
Description: as §1

[7] = system: SW 1116; conditions: SW 1116 (Intestine), 15 μM seliciclib
Description: as §1

[8] = system: MEL-JUSO; conditions: MEL-JUSO (Skin), 15 μM seliciclib
Description: as §1

[9] = system: CaR-1; conditions: CaR-1 (Intestine), 15 μM seliciclib
Description: as §1

[10] = system: Calu-1; conditions: Calu-1 (Lung: NSCLC), 15 μM seliciclib
Description: as §1

[11] = system: A2780; conditions: A2780 (Ovary), 15 μM seliciclib
Description: as §1

[12] = system: SNG-M; conditions: SNG-M (Uterus), 15 μM seliciclib
Description: as §1

[13] = system: ESS-1; conditions: ESS-1 (Uterus), 15 μM seliciclib
Description: as §1

[14] = system: T84; conditions: T84 (Intestine), 15 μM seliciclib
Description: as §1

[15] = system: JHU-028EP; conditions: JHU-028EP (Head & Neck), 15 μM seliciclib
Description: as §1

[16] = system: HPAF-II; conditions: HPAF-II (Pancreas), 15 μM seliciclib
Description: as §1

[17] = system: NUGC-3; conditions: NUGC-3 (Stomach), 15 μM seliciclib
Description: as §1

[18] = system: CAL-62; conditions: CAL-62 (Thyroid), 15 μM seliciclib
Description: as §1

[19] = system: NCI-H1048; conditions: NCI-H1048 (Lung), 15 μM seliciclib
Description: as §1

[20] = system: HMVII; conditions: HMVII (Skin), 15 μM seliciclib
Description: as §1

[21] = system: H2722; conditions: H2722 (Lung), 15 μM seliciclib
Description: as §1

[22] = system: RT112/84; conditions: RT112/84 (Bladder), 15 μM seliciclib
Description: as §1

[23] = system: NCI-H520; conditions: NCI-H520 (Lung: NSCLC), 15 μM seliciclib
Description: as §1

[24] = system: Saos-2; conditions: Saos-2 (Bone), 15 μM seliciclib
Description: as §1

[25] = system: PA-TU-8902; conditions: PA-TU-8902 (Pancreas), 15 μM seliciclib
Description: as §1

[26] = system: BEN; conditions: BEN (Lung: NSCLC), 15 μM seliciclib
Description: as §1

[27] = system: KP-4; conditions: KP-4 (Pancreas), 15 μM seliciclib
Description: as §1

[28] = system: SK-MES; conditions: SK-MES (Lung: NSCLC), 15 μM seliciclib
Description: as §1

[29] = system: MIA PaCa-2; conditions: MIA PaCa-2 (Pancreas), 15 μM seliciclib
Description: as §1

[30] = system: AsPC-1; conditions: AsPC-1 (Pancreas), 15 μM seliciclib
Description: as §1

[31] = system: G-402; conditions: G-402 (Kidney), 15 μM seliciclib
Description: as §1

[32] = system: BHY; conditions: BHY (Head & Neck), 15 μM seliciclib
Description: as §1

[33] = system: NCI-H727; conditions: NCI-H727 (Lung), 15 μM seliciclib
Description: as §1

[34] = system: JHH-6; conditions: JHH-6 (Liver), 15 μM seliciclib
Description: as §1

[35] = system: Panc 03.27; conditions: Panc 03.27 (Pancreas), 15 μM seliciclib
Description: as §1

[36] = system: NCI-H1734; conditions: NCI-H1734 (Lung: NSCLC), 15 μM seliciclib
Description: as §1

[37] = system: NCI-H630; conditions: NCI-H630 (Intestine), 15 μM seliciclib
Description: as §1

`CC[C@H](CO)Nc1nc(NCc2ccccc2)c2ncn(C(C)C)c2n1` [seliciclib, roscovitine] was tested, and the “Fractional Growth” value [1] was 0.7432, the “Fractional Growth” value [2] was 0.2806 and the “Fractional Growth” value [3] was 0.5363. The “Fractional Growth” value [4] was 0.3892, the “Fractional Growth” value [5] was 0.5115 and the “Fractional Growth” value [6] was 0.3063. The “Fractional Growth” value [7] was 0.7592, the “Fractional Growth” value [8] was 0.4945 and the “Fractional Growth” value [9] was 0.5795. The “Fractional Growth” value [10] was 0.6124, the “Fractional Growth” value [11] was 0.4827 and the “Fractional Growth” value [12] was 0.3393. The “Fractional Growth” value [13] was 0.4399, the “Fractional Growth” value [14] was 0.5371 and the “Fractional Growth” value [15] was 0.3716. The “Fractional Growth” value [16] was 0.4628, the “Fractional Growth” value [17] was 0.5557 and the “Fractional Growth” value [18] was 0.3139. The “Fractional Growth” value [19] was 0.5502, the “Fractional Growth” value [20] was 0.4646 and the “Fractional Growth” value [21] was 0.8974. For the same compound, the “Fractional Growth” value [22] was 0.318, the “Fractional Growth” value [23] was 0.6863 and the “Fractional Growth” value [24] was 0.5733. The “Fractional Growth” value [25] was 0.5577, the “Fractional Growth” value [26] was 0.4149 and the “Fractional Growth” value [27] was 0.5607. For the same compound, the “Fractional Growth” value [28] was 0.4439, the “Fractional Growth” value [29] was 0.4826 and the “Fractional Growth” value [30] was 0.6879. The “Fractional Growth” value [31] was 0.2708, the “Fractional Growth” value [32] was 0.5602 and the “Fractional Growth” value [33] was 0.5866. The “Fractional Growth” value [34] was 0.3234, the “Fractional Growth” value [35] was 0.5632 and the “Fractional Growth” value [36] was 0.2849. For the same compound, the “Fractional Growth” value [37] was 0.7543.
